Measured values from patent US20140088192A1, “SUBCUTANEOUSLY INFUSIBLE LEVODOPA PRODRUG COMPOSITIONS AND METHODS OF INFUSION” (SynAgile Corporation, priority 2010, published 2014).

Key:
[1] = Estimated / projected shelf life and operational life (time to LD saturation); conditions: for storage time without LD precipitation: 2.5±0.5 M aqueous; for time remaining precipitate free: after 18 months refrigerated storage
Text: To minimize hydrolysis and LD precipitation, the LDE salt can be stored in its dry solid form, and dissolved in water or in an aqueous solution prior to use. Alternatively and preferably, the LDE salt can be dissolved, and stored as an aqueous solution at a pH and at a temperature where the rate of hydrolysis is slow. […] The operational life, meaning the life of the infused solution, is similarly pH dependent. The pH of a subcutaneously infused solution can be generally greater than about 4.0. […] To extend the shelf life, the solution may be optionally stored at a temperature below about 25° C., for example it may be refrigerated at about 5±3° C.
After flushing with nitrogen, the solution was kept for 7 days at 23±2° C. in a vial sealed with a grey elastomeric, substantially oxygen impermeable septum. […] An operational life of 4 days suffices for infusion.
After flushing with nitrogen, the solution was kept in a vial sealed with a grey, elastomeric oxygen impermeable septum.
After flushing with nitrogen, the solution was kept in a vial sealed with a grey elastomeric, oxygen impermeable septum.

volunteer = experiment: Intramuscular / subcutaneous infusion of LDEE.HCl in human volunteers, local tolerability; format: in vivo
Experimental: The flow rate was 0.6 mL/h. […] The protrusion disappeared after 2 days.
A healthy volunteer took one Lodosyn (carbidopa), 25 mg pill, at each of the morning, midday and evening of the day preceding the infusion, and in the morning, midday and evening of the day of the infusion. After adjusting the pH of a stored solution of pH 2.4 and 2.5 mL volume of 2.9 M LDEE.HCl by adding to it 0.16 mL of 1.5 M trisodium citrate solution to about pH 4.6±0.1, a 2.7 M LDEE.HCl solution was obtained. Using a Medtronic Minimed Paradigm 723, a Medtronic Minimed Silhouette, 43 inches, 17 mm cannula infusion set, a Medtronic Minimed Sil-Serter infusion set insertion system, the volunteer infused 0.67 mL of the 2.7 M LDEE.HCl solution into their abdomen over a period of 9 hours. The infusion site was 7-8 cm below the ribs. The initial 4 hr infusion was at a rate of 0.062 mL/hr (37.5 mg of LDEE/hr), followed by 0.082 mL/hr (50 mg of LDEE/hr) in the next 5 hours. The total infused volume contained 406 mg LDEE, the equivalent to 356 mg L-DOPA.
A healthy volunteer took one Lodosyn (carbidopa), 25 mg pill, at each of the evening preceding the infusion, and in the morning, midday and evening of the day of the infusion. After adjusting the pH to about pH 4.7±0.3 of a stored solution of pH 2.4 and 2.5 mL volume of 2.9 M LDEE.HCl by adding 0.16 mL of 1.5 M trisodium citrate solution, a 2.7 M LDEE.HCl solution was obtained. Using a Medtronic Minimed Paradigm 723, a Medtronic Minimed Silhouette, 43 inches, 17 mm cannula infusion set, and a Medtronic Minimed Sil-Serter infusion set insertion system, the a volunteer infused 0.67 mL of the 2.7 M LDEE.HCl solution into the frequently exercised and occasionally massaged outside of the upper arm over a period of 9 hours. The initial 4 hr infusion was at a rate of 0.062 mL/hr (37.5 mg of LDEE/hr), followed by 0.082 mL/hr (50 mg of LDEE/hr) in the next 5 hours. The total infused volume contained 400 mg LDEE, the equivalent to 351 mg L-DOPA.
A healthy volunteer took one Lodosyn (carbidopa), 25 mg pill, at each of the evening of the day preceding the infusion, and in the morning, mid-day and evening of the day of the infusion. 1 mL of the 2.9 M LDEE.HCl stored solution of pH 2.4, 0.04 mL of a 1.5 M trisodium citrate solution and 2 mL sterile water were syringed into the reservoir of a Medtronic Minimed Paradigm 723 pump. This pump and a Medtronic Minimed Silhouette, 43 inches, 17 mm cannula infusion set inserted with a Medtronic Minimed Sil-Serter infusion set insertion system were used. The volunteer infused 1.85 mL, or 396 mg LDEE (equivalent to 347 mg L-DOPA) of the now 3× diluted 0.95 M LDEE solution into their upper arm over a period of 9 hours at two rates: First near 37.5 mg/hr (0.175 mL/hr) for 4 hours then near 50 mg/hr (0.233 mL/hr) for 5 hours. During the course of the infusion the volunteer periodically exercised their arm and gently massaged the infusion site.
A healthy volunteer took one Lodosyn (carbidopa), 25 mg pill, at each of the evening of the day preceding the infusion, and in the morning, mid-day and evening of the day of the infusion. The reservoir of a Medtronic Minimed Paradigm 723 pump was primed (to assure that all of the 3 mL in the reservoir will be infused) then the reservoir was filled with 0.6 mL of the 2.9 M LDEE.HCl stored solution of pH 2.4, 0.024 mL of a 1.5 M trisodium citrate solution and 2.4 mL sterile water by syringing. The pump, a Medtronic Minimed Silhouette, 43 inches, 17 mm cannula infusion set, and a Medtronic Minimed Sil-Serter infusion set insertion system were used. The volunteer infused 3 mL, or 400 mg LDEE (equivalent to 350 mg L-DOPA) of the now 5× diluted (i.e. 0.58 M) LDEE solution into their upper arm over a period of 9 hours at a flow rate of 0.33 mL/hr. […] The infusion ended at 7:30 pm. […]

[2] = intramuscular, right upper arm, about 0.45 mL of 2.3 M pH 4.5 over 45 min
[3] = s.c. abdomen, 0.67 mL of 2.7 M over 9 hours
[4] = s.c. exercised upper arm, 0.67 mL of 2.7 M over 9 hours
[5] = s.c. exercised upper arm, 1.85 mL of 0.95 M over 9 hours
[6] = s.c. upper arm, 3 mL of 0.58 M over 9 hours
[7] = s.c. upper arm, 10.7 mL of 0.48 M over 18 hours

CCOC(=O)[C@@H](N)Cc1ccc(O)c(O)c1.Cl [LDEE.HCl, LDEE Hydrochloride]
projected storage (shelf) life ([1]; 2.5 M solution at 4° C. (per Example 18)): greater than 4 years | projected shelf life ([1]; 2.5 M solution, pH 2.3, about 4° C.): about 4.7 years | operational life (time to LD saturation) ([1]; 2.5 M, pH 4.5 citrate, 29° C.-30° C.): 4 days | operational life, projection ([1]; 2.5 M, pH 4.5 citrate, 37° C. body temperature): about 2 days | operational life (time to LD saturation) ([1]; 2.5 M, pH 4.5 citrate, about 23° C.): about 9 days | storage time without LD precipitation ([1]; pH 2.5±0.5, about 5±3° C.): about 3 years | storage time without LD precipitation ([1]; pH about 1.5 to about 3.5, about 5±3° C.): more than 1 year | % of the LDEE.HCl hydrolyzed at which LD saturation is reached ([1]; 2.7 M LDEE.HCl, LD saturation about 17 grams per liter): about 3.4% | Estimated pH 2.3 storage life at 4° C. ([1]; about 2.0 M LDEE.HCl solution): 50 months | Estimated pH 2.3 storage life at 25° C. ([1]; about 2.0 M LDEE.HCl solution): 2 months | Estimated pH 4.5 operational life at 30° C. ([1]; about 2.0 M LDEE.HCl solution): 4 days | Estimated pH 4.5 operational life at 37° C. ([1]; about 2.0 M LDEE.HCl solution): 2 days | operational life ([1]; about 2.7 M, about pH 4.49, 40° C.): > 48 h | residual operational life ([1]; after 18 months at 4° C., then operational ambient temperature): more than 3 days | time remaining precipitate free ([1]; pH raised to about 4.2±0.3, 30° C.): more than 3 days | time remaining precipitate free ([1]; pH raised to about 4.2±0.3, 37° C.): more than 2 days | residual operational life ([1]; after one year at 4° C., then 23° C. ambient): greater than 4 days | projected time free of LD precipitate ([1]; refrigerated pH 4.0 solution, 2.4 M): about 50 weeks | time to disappearance of the protrusion (volunteer; intramuscular, about 0.45 mL of 2.3 M pH 4.5): 2 days | local reaction after infusion (volunteer; [2]): small nodule which spread after 4 hours into an about 1 mm high, 2-3 cm radius protrusion | pain, inflammation, color change, sensitivity at the site (volunteer; [2]): no pain, inflammation, color change or sensitivity | pain or irritation (volunteer; s.c. abdomen, 0.24 mL of 2.3 M pH 4.5 over about 90 min in 8 boluses): felt no pain or irritation during or after the infusion | course of induration after 24 hours (volunteer; [3]): became diffuse and partly, but not completely, subsided | other adverse events (volunteer; [3]): no other adverse events | swelling / induration at infusion site (volunteer; [3]): Mild swelling was observed and an induration of approximately 2.5 cm diameter developed | pain or redness (volunteer; s.c. abdomen, 0.67 mL of 2.7 M pH about 4.6 over 9 hours, oral carbidopa): virtually no pain or redness | course of swelling (volunteer; [4]): disappeared after a week | other adverse events (volunteer; [4]): no other adverse events of any kind | swelling at infusion site at end of infusion (volunteer; [4]): about 7 cm long elongated mildly swollen region | pain or redness (volunteer; s.c. exercised upper arm, 0.67 mL of 2.7 M pH about 4.7 over 9 hours, oral carbidopa): virtually no pain or redness | course of swelling (volunteer; [5]): disappeared gradually in about three days | other adverse events (volunteer; [5]): no other adverse events | swelling at infusion site at end of infusion (volunteer; [5]): very slightly swollen region of about 4 cm diameter | pain or redness (volunteer; s.c. exercised upper arm, 1.85 mL of 0.95 M over 9 hours, oral carbidopa): no pain or redness | adverse events (volunteer; [6]): no adverse events | local findings at end of infusion (volunteer; [6]): very slight reddening of a 2×4 cm skin area and a very slightly harder than normal 2 cm diameter zone under the skin | site on the following morning (volunteer; [6]): the skin and infused tissue appeared normal | pain during infusion (volunteer; s.c. upper arm, 3 mL of 0.58 M over 9 hours, oral carbidopa): felt no pain during the infusion | adverse events (volunteer; [7]): no adverse events | swelling (volunteer; [7]): swelling most of which subsided within 8 hours | time after which swelling was no longer visible (volunteer; [7]): 12 h | pain, reddening, inflammation at end of infusion (volunteer; s.c. upper arm, 10.7 mL of 0.48 M pH 4.8-5.0 (5.1 millimoles) over 18 hours, oral carbidopa): no pain, reddening or inflammation
